# Results reported in patent publication US20150125542A1, “TIE2 Activator, Vascular Endothelial Growth Factor (VEGF) Inhibitor, Angiogenesis Inhibitor, Vascular Maturing Agent, Vascular Normalizing Agent and Vascular Stabilizing Agent, and Pharmaceutical Composition” (Maruzen Pharmaceuticals Co., Ltd., priority 2010, published 2015).
# B1: Angiopoietin-1: Angiopoietin-1 (product of R&D Systems, Inc.) as a positive control (protein, UniProt Q15389 16-498, looked up)
# Angiopoietin-1: HIGCSNQRRSPENSGRRYNRIQHGQCAYTFILPEHDGNCRESTTDQYNTNALQRDAPHVEPDFSSQKLQHLEHVMENYTQWLQKLENYIVENMKSEMAQIQQNAVQNHTATMLEIGTSLLSQTAEQTRKLTDVETQVLNQTSRLEIQLLENSLSTYKLEKQLLQQTNEILKIHEKNSLLEHKILEMEGKHKEELDTLKEEKENLQGLVTRQTYIIQELEKQLNRATTNNSVLQKQQLELMDTVHNLVNLCTKEGVLLKGGKREEEKPFRDCADVYQAGFNKSGIYTIYINNMPEPKKVFCNMDVNGGGWTVIQHREDGSLDFQRGWKEYKMGFGNPSGEYWLGNEFIFAITSQRQYMLRIELMDWEGNRAYSQYDRFHIGNEKQNYRLYLKGHTGTAGKQSSLILHGADFSTKDADNDNCMCKCALMLTGGWWFDACGPSNLNGMFYTAGQNHGKLNGIKWHYFKGPSYSLRSTTMMIRPLDF
# Assays:
# [1] = tested on: human normal umbilical vein vascular endothelial cells co-cultured with human normal dermal fibroblasts; test: Angiogenesis inhibitory effect test (angiogenesis kit, number of luminal branching, VEGF-A); format: cell-based; conditions: VEGF-A (+) 10 ng/mL
# Method: The pharmacological effect, i.e., angiogenesis inhibitory effect of the hawthorn extract was evaluated by measuring a decrease of the number of vascular branching by means of image analysis as follows. At first, human normal umbilical vein vascular endothelial cells were co-cultured with human normal dermal fibroblasts at a constant ratio using the angiogenesis kit (product of KURABO INDUSTRIES LTD.) to a proliferative state at the early stage of lumen formation. The test sample, the hawthorn extract (fruits) (HAWTHORN EXTRACT POWDER MF, product of MARUZEN PHARMACEUTICALS CO., LTD.), was added to media so as to have concentrations described in Table 2 in the presence of 10 ng/mL of vascular endothelial cell growth factor-A (VEGF-A) (product of KURABO INDUSTRIES LTD.), followed by incubation at 37° C. and 5% CO2. […] The CD31 (PECAM-1) in HUVEC cells was stained with the lumen staining kit (CD31, product of KURABO INDUSTRIES LTD.) The stained cells in the wells were photographed and counted for the number of luminal branching. Based on the thus-obtained number of luminal branching, the angiogenesis inhibitory effect was evaluated.
# Tie2 = target: T1, Tie2 (Homo sapiens, UniProt Q02763); test: Tie2 activating effect (immunoassay) test in HUVECs; format: cell-based
# T1 construct: endogenous in cells; host or cells: HUVEC (human umbilical vein endothelial cells)
# Method: The pharmacological effect of the hawthorn extract was evaluated by detecting the amount of phosphorylated Tie2 protein. The phosphorylated Tie2 protein was quantified by means of an immunochemical method including an immunoassay. The method was performed as follows.
# At first, normal human umbilical vein endothelial cells (HUVECs) were cultured to confluent, inoculated into a 96-well plate at 2.0×10^4 cells/0.1 mL/well, and then cultured over night in a low-serum growth medium for vascular endothelial cells (HUMEDIA-EG2, product of KURABO INDUSTRIES LTD.) Next, the low-serum growth medium was replaced by 0.1 mL of a basal medium for vascular endothelial cells (HUMEDIA-EB2, product of KURABO INDUSTRIES LTD.) at 3 hours before cell stimulation (addition of test samples), and the post-cultured HUVECs were again cultured therein. […] After completion of the incubation, the amount of phosphorylated Tie2 and the total amount of Tie2 in the cells were measured by the immunoassay kit (HUMAN PHOSPHO-TIE2 (Y992) IMMUNOASSAY, product of R&D Systems) according to a manufacturer's protocol to thereby calculate the ratio of the amount of phosphorylated Tie2 to the total amount of Tie2.
# Similarly, the ratio of the amount of phosphorylated Tie2 to the total amount of Tie2 was calculated in the case of using dimethyl sulfoxide (DMSO) as a negative control. […]
# T1 sequence (Q02763 23-1124): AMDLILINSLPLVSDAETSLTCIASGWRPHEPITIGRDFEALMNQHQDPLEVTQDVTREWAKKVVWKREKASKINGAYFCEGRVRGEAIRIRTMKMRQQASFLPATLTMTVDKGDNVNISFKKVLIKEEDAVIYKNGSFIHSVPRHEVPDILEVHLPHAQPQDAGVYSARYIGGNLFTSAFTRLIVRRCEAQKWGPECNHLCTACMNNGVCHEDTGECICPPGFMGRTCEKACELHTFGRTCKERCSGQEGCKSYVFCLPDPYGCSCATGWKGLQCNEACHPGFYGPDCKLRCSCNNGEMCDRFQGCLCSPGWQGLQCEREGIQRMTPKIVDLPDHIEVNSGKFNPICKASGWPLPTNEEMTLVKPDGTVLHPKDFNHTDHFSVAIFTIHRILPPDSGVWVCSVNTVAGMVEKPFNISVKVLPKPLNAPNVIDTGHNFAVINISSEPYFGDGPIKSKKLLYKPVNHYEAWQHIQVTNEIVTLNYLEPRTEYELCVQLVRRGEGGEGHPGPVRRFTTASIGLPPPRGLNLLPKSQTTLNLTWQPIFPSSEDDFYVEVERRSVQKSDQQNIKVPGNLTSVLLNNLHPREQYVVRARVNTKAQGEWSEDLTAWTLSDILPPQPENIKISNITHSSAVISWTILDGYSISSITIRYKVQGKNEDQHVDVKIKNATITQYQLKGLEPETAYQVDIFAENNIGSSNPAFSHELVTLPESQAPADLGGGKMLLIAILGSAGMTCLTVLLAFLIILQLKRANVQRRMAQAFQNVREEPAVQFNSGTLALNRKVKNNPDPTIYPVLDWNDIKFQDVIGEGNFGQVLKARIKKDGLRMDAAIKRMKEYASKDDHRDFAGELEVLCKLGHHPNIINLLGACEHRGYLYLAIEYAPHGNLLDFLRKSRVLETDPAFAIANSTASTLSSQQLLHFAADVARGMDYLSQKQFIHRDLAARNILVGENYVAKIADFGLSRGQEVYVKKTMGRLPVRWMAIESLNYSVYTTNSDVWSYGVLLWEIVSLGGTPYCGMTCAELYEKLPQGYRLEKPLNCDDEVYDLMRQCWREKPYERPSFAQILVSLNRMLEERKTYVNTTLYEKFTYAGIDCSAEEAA
Molecule,"Number of vascular branching ([1]; 50 μM, Means ± S.E., n = 3)","inhibition at 50 µM ([1]; Homo sapiens, read-out: Angiogenesis inhibitory rate (%))","Activation rate of Tie2 (%) (Tie2; 0.5 μg/mL, 10 min, negative control DMSO = 100, Means ± S.E., n = 4)","Tie2 activating effect (immunoassay), in words (Tie2; immunoassay kit)"
Cc1ccc(C(=O)Nc2ccc(S(=O)(=O)O)c3cc(S(=O)(=O)O)cc(S(=O)(=O)O)c23)cc1NC(=O)c1cccc(NC(=O)Nc2cccc(C(=O)Nc3cc(C(=O)Nc4ccc(S(=O)(=O)O)c5cc(S(=O)(=O)O)cc(S(=O)(=O)O)c45)ccc3C)c2)c1 [Suramin],30.0 ± 4.0,70.8%,,
B1,,,130.2 ± 8.3 %,verified to be phosphorylated and thus activated
